pIC50: −log10 of the molar value. Read-outs that look alike come from different tables or passages of the source.

Series [1] concerns C. albicans strain ATCC 96901. In words: Growth inhibition of fluconazole-resistant C. albicans strain ATCC 96901 in YPD medium (turbidity, A600).
Protocol: (§1) AH109 cells or ATCC 96901 cells were inoculated into 200.0 ml of YPD to obtain an initial OD600 reading of 0.005 on a spectrophotometer. […] The yeast suspensions were placed on a shaking incubator set at 200 rpm and 30° C. for 18-24 hr (S. cerevisiae) or 10-12 hr (C. albicans), and then the extent of fungal growth was assessed by measuring the sample absorbance at 600 nm (A600 nm) on a spectrophotometer. The effect of each concentration of antifungal agent was tested in triplicate.
In series [2] the test system is S. cerevisiae strain AH109. In words: Growth inhibition of S. cerevisiae strain AH109 in YPD medium (turbidity, A600).
Protocol: as §1
The test system of series [3] is C. albicans strain ATCC 96901. Briefly: Broth microdilution susceptibility testing (MIC), C. albicans strain ATCC 96901. The settings on record: fluconazole-resistant C. albicans strain ATCC 96901, RPMI medium pH 7.0, 48 hr, 30° C.; MIC = lowest concentration with 100% growth inhibition. (In general: Broth dilution looks for growth in wells or tubes with falling amounts of substance.)
Protocol: (§2) Broth Microdilution Susceptibility Testing of C. albicans:
(§3) Note that all susceptibility assays were performed in triplicate wells using sterile flat-bottom 24-well microtiter plates.

For the next series, the system named is C. albicans strain S2. Briefly: Broth microdilution susceptibility testing (MIC), C. albicans strain S2. The settings on record: fluconazole-resistant C. albicans strain S2, RPMI medium pH 7.0, 48 hr, 30° C.; MIC = lowest concentration with 100% growth inhibition.
Setting [4] is: Candida albicans, ATCC96901, read-out: IC50, concentration of drug required to inhibit the growth of yeast cells by 50%.
Where [5] appears, read: Saccharomyces cerevisiae, AH109, AH109, read-out: IC50, concentration of drug required to inhibit the growth of yeast cells by 50%.

Protocol for A-431 human skin cells: Cells were then incubated for 48 hr at 37° C. After incubation, the MTT viability assay was performed. This assay measures the conversion of 3-[4,5-dimethylthiazol-2-yl]-2,5-diphenyl tetrazolium bromide (MTT) into a colored product in living cells.
The MTT assay was used to determine cell viability and the LC50 value for each compound was evaluated.
Protocol for C. albicans strain S2: as §2, §3

On to `OC(Cn1cncn1)(Cn1cncn1)c1ccc(F)cc1F` [fluconazole], for which the pIC50 was 3.34 in series [1] (setting [4]) and 4.28 in series [2] (setting [5]).

With `CC(=O)N1CCN(c2ccc(OCC3COC(Cn4ccnc4)(c4ccc(Cl)cc4Cl)O3)cc2)CC1` (stereo not drawn) [ketoconazole], the pIC50 in series [1] (setting [4]) was 6.68; in series [2] (setting [5]), 6.27.

Take `O=c1c2ccccc2[se]n1-c1ccccc1` [ebselen, 2-phenyl-1,2-benzisoselenazol-3(2H)-one]: the “MIC compared with fluconazole” value was “lower MIC values, than fluconazole” in series [3] and “lower MIC values, than fluconazole” in the series with C. albicans strain S2. Further, the pIC50 is 5.23 in series [1] (setting [4]) and 5.34 in series [2] (setting [5]). The “Toxicity to A-431 human skin cells (MTT viability, LC50 evaluated)” value in the series on A-431 human skin cells is on record as “neither compound was toxic”.

Consider `CCC(C)n1ncn(-c2ccc(N3CCN(c4ccc(OCC5COC(Cn6cncn6)(c6ccc(Cl)cc6Cl)O5)cc4)CC3)cc2)c1=O` (stereo not drawn) [itraconazole], for which the pIC50 was 6.32 in series [1] (setting [4]) and 5.95 in series [2] (setting [5]).

As to `C[C@@H]1[C@H](O)[C@@H](C)/C=C/C=C/C=C/C=C/C=C/C=C/C=C/[C@H](O[C@@H]2O[C@H](C)[C@@H](O)[C@H](N)[C@@H]2O)C[C@@H]2O[C@](O)(C[C@@H](O)C[C@@H](O)[C@H](O)CC[C@@H](O)C[C@@H](O)CC(=O)O[C@H]1C)C[C@H](O)[C@H]2C(=O)O` [amphotericin B], the pIC50 was 6.64 in series [1] (read-out: IC50, concentration of drug required to inhibit the growth of yeast cells by 50%, fluconazole-resistant C. albicans ATCC 96901, YPD medium, 10-12 hr, 30° C.) and 7.52 in series [2] (read-out: IC50, concentration of drug required to inhibit the growth of yeast cells by 50%, S. cerevisiae AH109, YPD medium, 18-24 hr, 30° C.).

With `O=C1c2ccccc2[Se](=O)N1c1ccccc1` (stereo not drawn) [ebselen se-oxide, 2-phenyl-1,2-benzisoselenazol-3(2H)-one 1-oxide], the “MIC compared with fluconazole” value in series [3] is on record as “lower MIC values, than fluconazole”; against C. albicans strain S2 it was “lower MIC values, than fluconazole”. The pIC50 in series [1] (setting [4]) is 5.35; in series [2] (setting [5]), 5.68. The “Toxicity to A-431 human skin cells (MTT viability, LC50 evaluated)” value in the series on A-431 human skin cells is listed as “neither compound was toxic”.

The values are drawn from US8426452B2, “Process for the treatment and prevention of diseases caused by fungi” (priority 2008, dated 2013).
